This is an account of results in patent US20260092086A1, “ANTIMICROBIAL LASSO PEPTIDES” (priority 2022, published 2026).

Data set [1] relates to Escherichia coli XL-1 Blue. Briefly: Intracellular toxicity: IPTG-induced expression from plasmid lacking cloD. It counts as cell-based. To be noted: IPTG induction. Here is the method: After characterizing the structure and proteolytic resistance of cloacaenodin, cloacaenodin's inhibition of bacterial growth was tested. As a preliminary test of antimicrobial activity, a version of the expression plasmid from which the cloD gene was removed was cloned, so that the lasso peptide could not be exported by the Escherichia coli upon isopropyl β-D-1-thiogalactopyranoside (IPTG)-induced expression.
Cloacaenodin variants were constructed using site-directed mutagenesis. Mutant precursor genes were amplified from the wild-type precursor in pAK2 using mutagenic primers. Following PCR amplification of the mutated precursor gene, the purified PCR product was digested and ligated into pAK2 with the EcoRI and HindIII restriction sites. For the pMP3 plasmid for deletion of the cloD gene, the D gene was first disrupted by digestion of pAK2 with BamHI and NcoI, which removed the entire cloD gene and the C-terminal portion of the cloC gene. The digested plasmid was then ligated with an insert that restored the C-terminal portion of the cloC gene. All mutants were sequence confirmed by Genewiz (now Azenta) before use.

Data set [2] has as its system Enterobacter amnigenus ATCC 33072. It counts as cell-based. To be noted: against Enterobacter amnigenus (FIG. 28, peptides at 10 μM; Y10A FIG. 34). Here is the method:
Cloacaenodin was evaluated against several common laboratory strains as well as commercially acquired strains using a spot-on-lawn assay.^45 Strains were streaked out onto LB agar plates and incubated overnight at their recommended temperatures. A single colony was then used to inoculate an overnight culture in 5 mL of LB broth. After shaking at 250 rpm at the recommended temperature for each strain, 50 μL of the overnight culture was used to inoculate 5 mL of LB broth (volume ratio 1:100). These cultures were grown for a few hours until they reached the exponential phase (OD600˜0.4-0.6) before being added to 10 mL of soft M63 agar at a final cell density of 10^7 CFUs/mL, or 10^8 CFUs total in 10 mL. The M63 soft agar was composed of 2 g/L of (NH4)2SO4 (EMD MilliporeSigma), 13.6 g/L of KH2PO4 (Fisher), 40 mg/L of each of the 20 common amino acids, 0.2% glucose (Sigma), 0.00005% w/v thiamine hydrochloride (Sigma), and 0.65% w/v bacteriological-grade agar (Apex Bioresearch). […] Upon solidification, 10 μL of purified cloacaenodin in water at two-fold dilutions were then spotted onto the agar and allowed to dry. The plates were incubated overnight at the strains' recommended temperatures and analyzed the next morning for activity. The MIC is defined as the last dilution where a spot was visible.

The target of another data set is T1, Thermolysin (Geobacillus stearothermophilus, UniProt P43133).
T1 construct: purchased Sigma-Aldrich
Briefly: Protease digestion, thermolysin. The following applies: 50 μM peptide, 30° C., about 1 hour, LC-MS. It counts as in vitro ADME. As to the method:
Thermolysin from Geobacillus stearothermophilus (Sigma-Aldrich) was first resuspended in 50 mM Tris, 0.5 mM CaCl2). The enzyme was then added to 50 μM peptide samples at a final concentration of about 0.04 mg/mL in a buffer of 50 mM Tris, 0.5 mM CaCl2), pH 8. The reactions were then allowed to incubate at 30° C. for about 1 hour before quenching with 1% formic acid. An aliquot was then injected onto LC-MS for analysis.

For data set [3], the system named is Enterobacter cloacae BIDMC120. To be noted: strain BIDMC120; cited from earlier work.
The subject of data set [4] is Enterobacter hormaechei UCI35. The following applies: strain UCI35; cited from earlier work.
Data set [5] deals with Enterobacter roggenkampii MGH239. To be noted: strain MGH239; cited from earlier work.
The subject of data set [6] is Enterobacter hormaechei BIDMC87. The following applies: strain BIDMC87; cited from earlier work.
For data set [7], the system named is Enterobacter asburiae UCI193. The following applies: strain UCI193; cited from earlier work.
Data set [8] concerns Enterobacter ludwigii MGH216. The following applies: strain MGH216; cited from earlier work.
The subject of data set [9] is Enterobacter hormaechei BWH39. To be noted: strain BWH39; cited from earlier work.
In data set [10] the test system is Enterobacter cloacae MGH3. To be noted: strain MGH3; cited from earlier work.
Data set [11] deals with Enterobacter asburiae MGH243. To be noted: strain MGH243; cited from earlier work.
The test system of data set [12] is Enterobacter kobei MGH178. To be noted: strain MGH178; cited from earlier work.
Data set [13] concerns Enterobacter cloacae UCI102. The following applies: strain UCI102; cited from earlier work.
In data set [14] the test system is carboxypeptidase B and carboxypeptidase Y. Briefly: Carboxypeptidase digestion. The class given is in vitro ADME. Here is the method: Carboxypeptidase assays were done in 50 μL of 50 mM sodium acetate, pH 6.0 with 1 unit each of carboxypeptidase B and carboxypeptidase Y. Reactions were incubated overnight at 20° C. for 16 hours and then quenched with 1% formic acid. An aliquot of the reaction was then injected onto LC-MS to compare with an untreated control.

The nature of data set [15]: Stability of variants: threaded-to-unthreaded peptide in supernatant extract by LC-MS. It counts as physicochemical. The following applies: for Stability Relative to WT: ratio of threaded-to-unthreaded peptide in supernatant extract after purification; for threaded versus unthreaded peptide in supernatant extract (stability against unthreading): heating and carboxypeptidase assays, compared with wild-type.

“Also recorded” adds a separate entry of the source. Where a SMILES comes first, the peptide text is derived from it.

T1 sequence (P43133 236-551): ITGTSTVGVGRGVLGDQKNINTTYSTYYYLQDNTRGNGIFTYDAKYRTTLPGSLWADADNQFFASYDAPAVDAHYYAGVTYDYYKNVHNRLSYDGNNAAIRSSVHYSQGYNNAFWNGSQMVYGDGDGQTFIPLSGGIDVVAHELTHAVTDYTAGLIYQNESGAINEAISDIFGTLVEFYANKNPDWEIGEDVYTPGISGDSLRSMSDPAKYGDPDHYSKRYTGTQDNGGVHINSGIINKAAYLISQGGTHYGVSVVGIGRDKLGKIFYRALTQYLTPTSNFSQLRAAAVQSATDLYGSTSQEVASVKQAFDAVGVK

In the case of “GHSVDRIPEAFGPPGLPGPVLFYS [Cloacaenodin Y10A, 118]”, the “intracellular toxicity (growth of E. coli on IPTG without CloD)” value in data set [1] is recorded as “not toxic intracellularly”; in data set [1] (listed as Y10A) it was “cells could still grow”. In addition, in data set [2], the “Bioactivity Relative to WT” value is reported as “Much less”.
As to “GHSVDRIPEYFGPPGLPGPVLFYY [Cloacaenodin S24Y, 114]”, the “Bioactivity Relative to WT” value in [2] is on record as “Comparable”.
`CC[C@H](C)[C@@H]1NC(=O)[C@H](CCCNC(=N)N)NC(=O)[C@H](CC(=O)O)NC(=O)[C@H](C(C)C)NC(=O)[C@H](CO)NC(=O)[C@H](Cc2c[nH]cn2)NC(=O)CNC(=O)CC[C@@H](C(=O)N[C@@H](Cc2ccc(O)cc2)C(=O)N[C@@H](Cc2ccccc2)C(=O)NCC(=O)N2CCC[C@H]2C(=O)N2CCC[C@H]2C(=O)NCC(=O)N[C@@H](CC(C)C)C(=O)N2CCC[C@H]2C(=O)NCC(=O)N2CCC[C@H]2C(=O)N[C@H](C(=O)N[C@@H](CC(C)C)C(=O)N[C@@H](Cc2ccccc2)C(=O)N[C@@H](Cc2ccc(O)cc2)C(=O)N[C@@H](CO)C(=O)O)C(C)C)NC(=O)[C@@H]2CCCN2C1=O` [unthreaded cloacaenodin] (HELM PEPTIDE1{G.H.S.V.D.R.I.P.E.Y.F.G.P.P.G.L.P.G.P.V.L.F.Y.S}$PEPTIDE1,PEPTIDE1,1:R1-9:R3$$$V2.0; C-terminus assumed; bridges inferred): at Thermolysin, the proteolysis by thermolysin entry is “cleavage of the unthreaded peptide both in its linear and ring segments; also recorded: can be cleaved by thermolysin”.
In the case of `C[C@@H](O)[C@H]1C(=O)N2C(C(=O)O)=C(S[C@@H]3CN[C@H](C(=O)N(C)C)C3)[C@H](C)[C@H]12` [Meropenem], the “Meropenem MIC” value in data set [3] was 4 µg/mL; in data set [4], 4 µg/mL; in data set [5], 1 µg/mL; in data set [6] it was 16 µg/mL; in [7], 23 µg/mL; in [8] it was ≤0.25 µg/mL. Also, the “Meropenem MIC” value in data set [9] is 2 µg/mL; in data set [10] it was ≥16 µg/mL; in data set [11] it was 16 µg/mL; in data set [12], ≤0.25 µg/mL; in data set [13], 0.063 µg/mL.
As for “GHSVADRIPEYFGPPGLPGPVLFYS [Cloacaenodin 10-membered ring]”, the proteolysis by carboxypeptidase entry in data set [14] (carboxypeptidase B and Y, pH 6.0, 20° C., 16 hours, LC-MS) was “susceptible to degradation by carboxypeptidase”. In addition, the “Stability Relative to WT” value in [15] was “Less”.
Turning to `CC[C@H](C)[C@@H]1NC(=O)[C@H](CCCNC(=N)N)NC(=O)[C@H](CC(=O)O)NC(=O)[C@H](C(C)C)NC(=O)[C@H](CO)NC(=O)[C@H](Cc2c[nH]cn2)NC(=O)CNC(=O)CC[C@@H](C(=O)N[C@@H](Cc2ccc(O)cc2)C(=O)N[C@@H](Cc2ccccc2)C(=O)NCC(=O)N2CCC[C@H]2C(=O)N2CCC[C@H]2C(=O)NCC(=O)N[C@@H](CC(C)C)C(=O)N2CCC[C@H]2C(=O)NCC(=O)N2CCC[C@H]2C(=O)N[C@H](C(=O)N[C@@H](CC(C)C)C(=O)N[C@@H](Cc2ccccc2)C(=O)N[C@@H](Cc2ccc(O)cc2)C(=O)NCC(=O)O)C(C)C)NC(=O)[C@@H]2CCCN2C1=O` [Cloacaenodin S24G] (HELM PEPTIDE1{G.H.S.V.D.R.I.P.E.Y.F.G.P.P.G.L.P.G.P.V.L.F.Y.G}$PEPTIDE1,PEPTIDE1,1:R1-9:R3$$$V2.0; C-terminus assumed; bridges inferred), the proteolysis by carboxypeptidase entry in data set [14] (pH 6) is given as “susceptibility to carboxypeptidase”.
As to “GHSVDRIAEYFGPPGLPGPVLFYS [Cloacaenodin P8A, 109]”, in data set [15], the “threaded versus unthreaded peptide in supernatant extract (stability against unthreading)” value is reported as “a dramatic decrease in the ratio of threaded-to-unthreaded peptide in the extract for a cloacaenodin P8A variant (FIG. 32) was not observed” and the “Stability Relative to WT” value is listed as “Comparable”.
“GHSVDRIPEYFGPPGLPGPVLFYT [Cloacaenodin S24T, 116]”: in data set [2], the “Bioactivity Relative to WT” value is “Less”.
Consider “GHSVDRIPEYFGPPGLPGPVLFYA [Cloacaenodin S24A, 113]”, for which the “Bioactivity Relative to WT” value in data set [2] is recorded as “Comparable”.
Turning to “GHSVDRIPEYFGPPGLPGPVLWYS [Cloacaenodin F22W]”, the “Bioactivity Relative to WT” value in [2] was “Comparable”. In data set [15], the “threaded versus unthreaded peptide in supernatant extract (stability against unthreading)” value was “comparable levels of unthreaded peptide” and the “Stability Relative to WT” value is reported as “Comparable”.
Take “GHSVDRIPEYFGPPGLPGPVLFYC [Cloacaenodin S24C, 117]”: the “Bioactivity Relative to WT” value in data set [2] is reported as “Less”.
